Results taken from patent US20260007715A1, “WOUND CARE DEVICE” (priority 2019, published 2026).
Entries after “also recorded” stand apart in the source; their conditions may differ. Where no end group is shown, it is not given here.

Key:
[1] = system: Horse blood; test: Blood coagulation on hydrogel samples with different peptides, whole horse blood test (Experiment 3); assay type: cell-based; details: citrated horse blood recalcified, 60 min at 37° C., washed three times with PBS, duplicate
Experimental: Hydrogels were functionalized with 4 different types of antimicrobial peptides (AMPs). The AMPs used were PGLa, LL-37, Temporin B and RRP9W4. As control hydrogels without any attached AMPs were used.
Fresh citrated Horse blood was purchased from Håtunalab AB, Sweden and used to show how if presence of AMPs can induce clotting. In an Eppendorf tube, 1 ml of blood with 0.1 ml of 250 Mm calcium chloride (to reverse the citrate anticoagulant) was added and mixed.
Samples were placed in 24 well plate and conditioned by adding 1 ml PBS to the hydrogels. After 15 minutes the samples were transferred to the Eppendorf tubes containing the blood. The tubes were then placed on shaker and incubated for 60 min at 37° C.
As blank controls, 1 ml of blood was added to an Eppendorf tube without any hydrogels and treated with the same conditions. […] Samples were run in duplicate.

[2] = system: plasmatic coagulation; details: literature, Int. J. Mol. Sci. 2019, 20, 5426; cited from earlier work

Row | Substance | Observations (clot on hydrogel) [1] | effect on plasmatic coagulation [2]
1 | LL-37: human cathelicidin derived LL-37 peptide (LLGDFFRKSKEKIGKEFKRIVQRIKDFLRNLVPRTES; Antibacterial peptide LL-37; UniProt P49913 134-170, looked up) | no clot formation; also recorded: did not form a strong clot; also recorded: No visible clot was observed | not to affect plasmatic coagulation
2 | RRPRPRPRPWWWW-NH2 [RRP9W4, PRELP derived antimicrobial peptide] | large visible clot; also recorded: surprising clotting effect; also recorded: Big clot with firm attachment onto the surface | 
